Assay results as given in patent US20260297108A1, “NOVEL INHIBITORS OF PIKFYVE AND METHODS USING SAME” (priority 2023, published 2026).

target: T1, PIKFYVE (Homo sapiens, UniProt Q9Y2I7); test: not given; set-up: T7 phage display fusion, or alternatively DNA tag for qPCR (general KINOMEscan description); purchased Eurofins; settings: background; cited from earlier work
T1 sequence (Q9Y2I7 whole entry, the tested form may be a part): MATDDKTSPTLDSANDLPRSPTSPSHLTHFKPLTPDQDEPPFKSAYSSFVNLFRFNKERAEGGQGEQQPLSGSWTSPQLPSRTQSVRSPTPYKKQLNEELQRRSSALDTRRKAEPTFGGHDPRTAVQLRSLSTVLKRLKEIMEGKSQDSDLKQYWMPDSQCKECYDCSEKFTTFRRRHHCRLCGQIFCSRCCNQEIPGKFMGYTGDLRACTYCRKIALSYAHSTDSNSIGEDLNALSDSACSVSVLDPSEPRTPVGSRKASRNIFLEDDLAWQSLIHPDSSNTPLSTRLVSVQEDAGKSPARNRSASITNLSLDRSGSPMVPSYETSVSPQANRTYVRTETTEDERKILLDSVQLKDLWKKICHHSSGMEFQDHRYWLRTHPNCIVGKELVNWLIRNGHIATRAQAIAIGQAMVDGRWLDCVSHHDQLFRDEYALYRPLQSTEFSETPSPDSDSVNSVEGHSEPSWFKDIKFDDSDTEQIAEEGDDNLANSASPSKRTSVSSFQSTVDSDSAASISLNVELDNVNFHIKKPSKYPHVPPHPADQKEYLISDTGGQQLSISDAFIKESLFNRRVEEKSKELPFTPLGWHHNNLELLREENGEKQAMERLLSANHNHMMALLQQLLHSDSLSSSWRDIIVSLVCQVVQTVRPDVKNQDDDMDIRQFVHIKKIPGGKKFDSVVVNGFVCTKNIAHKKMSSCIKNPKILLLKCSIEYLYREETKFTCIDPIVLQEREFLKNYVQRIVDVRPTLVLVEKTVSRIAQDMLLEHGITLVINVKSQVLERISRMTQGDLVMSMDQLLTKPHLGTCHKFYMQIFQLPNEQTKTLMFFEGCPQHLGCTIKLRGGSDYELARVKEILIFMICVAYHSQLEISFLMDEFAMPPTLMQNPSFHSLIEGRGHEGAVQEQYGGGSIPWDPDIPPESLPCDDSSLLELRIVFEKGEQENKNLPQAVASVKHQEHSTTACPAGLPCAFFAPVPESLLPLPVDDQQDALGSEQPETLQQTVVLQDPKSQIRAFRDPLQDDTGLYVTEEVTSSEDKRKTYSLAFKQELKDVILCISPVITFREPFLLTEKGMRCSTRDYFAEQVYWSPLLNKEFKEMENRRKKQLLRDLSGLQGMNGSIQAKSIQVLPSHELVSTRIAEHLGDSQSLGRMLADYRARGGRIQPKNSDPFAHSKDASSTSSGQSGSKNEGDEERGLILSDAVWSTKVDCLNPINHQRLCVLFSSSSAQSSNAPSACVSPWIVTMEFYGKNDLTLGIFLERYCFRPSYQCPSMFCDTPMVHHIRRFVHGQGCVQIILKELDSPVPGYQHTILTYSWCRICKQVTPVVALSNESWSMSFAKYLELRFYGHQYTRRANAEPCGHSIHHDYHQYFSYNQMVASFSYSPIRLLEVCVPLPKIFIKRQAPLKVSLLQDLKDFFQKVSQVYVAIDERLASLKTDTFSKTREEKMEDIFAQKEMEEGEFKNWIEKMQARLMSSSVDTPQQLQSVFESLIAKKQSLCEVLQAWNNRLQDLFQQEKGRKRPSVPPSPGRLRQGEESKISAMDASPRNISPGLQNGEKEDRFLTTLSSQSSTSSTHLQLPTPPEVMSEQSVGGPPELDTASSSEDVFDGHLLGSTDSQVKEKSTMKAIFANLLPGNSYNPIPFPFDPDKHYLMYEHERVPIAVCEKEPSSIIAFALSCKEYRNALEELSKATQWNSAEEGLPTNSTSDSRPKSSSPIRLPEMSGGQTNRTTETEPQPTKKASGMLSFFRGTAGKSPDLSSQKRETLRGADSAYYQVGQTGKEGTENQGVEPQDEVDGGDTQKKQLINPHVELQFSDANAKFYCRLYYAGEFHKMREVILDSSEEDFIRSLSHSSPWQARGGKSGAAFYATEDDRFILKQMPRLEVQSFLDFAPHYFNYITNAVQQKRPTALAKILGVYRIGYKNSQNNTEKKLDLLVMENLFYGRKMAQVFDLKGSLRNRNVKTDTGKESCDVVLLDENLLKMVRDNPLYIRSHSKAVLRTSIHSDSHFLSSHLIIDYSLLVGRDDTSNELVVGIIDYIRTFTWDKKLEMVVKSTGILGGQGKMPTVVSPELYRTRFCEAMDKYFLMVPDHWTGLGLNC

Row | SMILES | PIKFYVE inhibitory activity
1 | Cc1cccc(/C=N/Nc2cc(N3CCOCC3)nc(OCCc3ccccn3)n2)c1 [Apilimod] | potent PIKFYVE inhibitory activity

system: enveloped viruses; test: not given; settings: background; cited from earlier work

Row | SMILES | prevention of infection by enveloped viruses
2 | Cc1cccc(/C=N/Nc2cc(N3CCOCC3)nc(OCCc3ccccn3)n2)c1 [Apilimod] | prevent infection by some of these enveloped viruses

system: MDCK cells; test: not given; settings: dog

Row | SMILES | CC50
3 | Cc1cccc(-c2ccn(-c3nc(N4CCOCC4)c4sc(CN5CCN(S(C)(=O)=O)CC5)cc4n3)n2)c1 [Ex. 2, 4-(6-((4-(methylsulfonyl)piperazin-1-yl)methyl)-2-(3-(m-tolyl)-1H-pyrazol-1-yl)thieno[3,2-d]pyrimidin-4-yl)morpholine] | > 150 µM
4 | NC(=O)c1ncn([C@@H]2O[C@H](CO)[C@@H](O)[C@H]2O)n1 [ribavirin, reference compound] | > 1000 µM

system: Marburg; test: not given; type: cell-based, Marburg virus (Angola strain); settings: not given

Row | SMILES | Selectivity Index
5 | Cc1cccc(-c2ccn(-c3nc(N4CCOCC4)c4sc(CN5CCN(S(C)(=O)=O)CC5)cc4n3)n2)c1 [Ex. 2, 4-(6-((4-(methylsulfonyl)piperazin-1-yl)methyl)-2-(3-(m-tolyl)-1H-pyrazol-1-yl)thieno[3,2-d]pyrimidin-4-yl)morpholine] | >15000

system: Influenza A; test: Influenza A, inhibition of CPE; type: cell-based, influenza A strain California/07/09 (H1N1) pdm09; settings: CC50 divided by EC50

Row | SMILES | Selectivity Index
6 | Cc1cccc(-c2ccn(-c3nc(N4CCOCC4)c4sc(CN5CCN(S(C)(=O)=O)CC5)cc4n3)n2)c1 [Ex. 2, 4-(6-((4-(methylsulfonyl)piperazin-1-yl)methyl)-2-(3-(m-tolyl)-1H-pyrazol-1-yl)thieno[3,2-d]pyrimidin-4-yl)morpholine] | >150

system: SARS-CoV2; test: SARS-COV-2 IFA, inhibition of CPE (strain USA-WA1/2020); type: cell-based; settings: CC50 divided by EC50

Row | SMILES | Selectivity Index
7 | Cc1cccc(-c2ccn(-c3nc(N4CCOCC4)c4sc(CN5CCN(S(C)(=O)=O)CC5)cc4n3)n2)c1 [Ex. 2, 4-(6-((4-(methylsulfonyl)piperazin-1-yl)methyl)-2-(3-(m-tolyl)-1H-pyrazol-1-yl)thieno[3,2-d]pyrimidin-4-yl)morpholine] | >150

system: SARS-CoV2 (Delta); test: SARS-COV-2 IFA, inhibition of CPE (Delta strain B.1.617); type: cell-based, SARS-COV-2 Delta strain B.1.617; settings: CC50 divided by EC50

Row | SMILES | Selectivity Index
8 | Cc1cccc(-c2ccn(-c3nc(N4CCOCC4)c4sc(CN5CCN(S(C)(=O)=O)CC5)cc4n3)n2)c1 [Ex. 2, 4-(6-((4-(methylsulfonyl)piperazin-1-yl)methyl)-2-(3-(m-tolyl)-1H-pyrazol-1-yl)thieno[3,2-d]pyrimidin-4-yl)morpholine] | >1000

system: not listed separately; test: in vitro; settings: dog, mdck

Row | SMILES | CC50
9 | Cc1cccc(-c2ccn(-c3nc(N4CCOCC4)c4sc(CN5CCN(S(C)(=O)=O)CC5)cc4n3)n2)c1 [Ex. 2, 4-(6-((4-(methylsulfonyl)piperazin-1-yl)methyl)-2-(3-(m-tolyl)-1H-pyrazol-1-yl)thieno[3,2-d]pyrimidin-4-yl)morpholine] | > 3 µM

target: T1, PIKFYVE; test: KINOMEscan Kinase Assay (PIKFYVE inhibitory activity); settings: read-out: PIKfyve Activity (% inhibition)

Row | SMILES | inhibition at 0.001 µM | inhibition at 0.003 µM
10 | Cc1cccc(-c2ccn(-c3cc(N4CCOCC4)c4sc(NC(=O)C5CCCN(C)C5)cc4n3)n2)c1 (stereo not shown) [Ex. 272] | 44% | 
11 | Cc1cccc(-c2ccn(-c3nc(N4CCOCC4)c4nc(C(=O)NC5COC5)[nH]c4n3)n2)c1 [Ex. 275] | 40% | 
12 | Cc1cccc(-c2ccn(-c3cc(N4CCOCC4)c4nc(CN5CCN(S(=O)(=O)C6CC6)CC5)[nH]c4n3)n2)c1 [Ex. 280] | 46% | 
13 | Cc1cccc(-c2ccn(-c3nc(N4CCOCC4)c4nc(CN5CCN(S(C)(=N)=O)CC5)[nH]c4n3)n2)c1 (stereo not shown) [Ex. 282] | 41% | 
14 | Cc1cccc(-c2ccn(-c3nc4[nH]c(C(=O)N5CCN(S(C)(=O)=O)CC5)nc4c(N4CCOCC4)c3F)n2)c1 [Ex. 292] | 13% | 
15 | Cc1cccc(-c2ccn(-c3cc(N4CCOCC4)c4nc(C(=O)N5CCN(S(C)(=O)=O)CC5)n(C)c4n3)n2)c1 [Ex. 304] | 46% | 
16 | Cc1cccc(-c2ccn(-c3nc4[nH]c(C(=O)N5CCC(C(C)(C)O)CC5)nc4c(N4CCOCC4)c3F)n2)c1 [Ex. 306] |  | 9%
17 | Cc1cccc(-c2ccn(-c3nc4[nH]c(C(=O)NC5CC5)nc4c(N4CCOCC4)c3F)n2)c1 [Ex. 307] |  | 0%
18 | Cc1cccc(-c2ccn(-c3nc4[nH]c(C(=O)NC5COC5)nc4c(N4CCOCC4)c3F)n2)c1 [Ex. 310] |  | 0%
19 | Cc1cccc(-c2ccn(-c3nc4[nH]c(C(=O)N5CCC(N6CCC6)C(F)C5)nc4c(N4CCOCC4)c3F)n2)c1 (stereo not shown) [Ex. 312] |  | 10%
20 | Cc1cccc(-c2ccn(-c3nc(N4CCOCC4)c4nc(CO)[nH]c4n3)n2)c1 [Ex. 314] | 40% | 
21 | Cc1cccc(-c2ccn(-c3nc(N4CCOCC4)c4nc(CO)n(C)c4n3)n2)c1 [Ex. 315] | 47% | 

same assay, conditions: read-out: PIKfyve Activity (PIKfyve % inhibition)

Row | SMILES | inhibition at 0.001 µM
22 | Cc1cccc(-c2ccn(-c3cc(N4CCOCC4)c4sc(NC(=O)C5CCN(C)C5)cc4n3)n2)c1 (stereo not shown) [Ex. 271] | 52 to 100%
23 | Cc1cccc(-c2ccn(-c3nc(N4CCOCC4)c4nc(C(=O)NC5CC5)[nH]c4n3)n2)c1 [Ex. 274] | 52 to 100%
24 | Cc1cccc(-c2ccn(-c3cc(N4CCOCC4)c4sc(NC(=O)C5CNC5)cc4n3)n2)c1 [Ex. 278] | 52 to 100%
25 | Cc1cccc(-c2ccn(-c3cc(N4CCOCC4)c4nc(CN5CCN(S(=O)(=O)C(C)C)CC5)[nH]c4n3)n2)c1 [Ex. 279] | 52 to 100%
26 | Cc1cccc(-c2ccn(-c3cc(N4CCOCC4)c4nc(CN5CC6CC5CN6S(C)(=O)=O)[nH]c4n3)n2)c1 (stereo not shown) [Ex. 281] | 52 to 100%
27 | Cc1cccc(-c2ccn(-c3cc(N4CCOCC4)c4sc(CN5CCN(S(C)(=N)=O)CC5)cc4n3)n2)c1 (stereo not shown) [Ex. 284] | 52 to 100%
28 | Cc1cccc(-c2ccn(-c3cc(N4CCOCC4)c4nc(CN5C6CC5CN(S(C)(=O)=O)C6)[nH]c4n3)n2)c1 [Ex. 285] | 52 to 100%
29 | Cc1cccc(-c2ccn(-c3nc(N4CCOCC4)c4sc(C(=O)N5CCN(S(C)(=O)=O)CC5)cc4n3)n2)c1 [Ex. 286] | 52 to 100%
30 | Cc1cccc(-c2ccn(-c3nc(N4CCOCC4)c4nc(C(=O)N5CCN(S(C)(=O)=O)CC5)n(C)c4n3)n2)c1 [Ex. 287] | 52 to 100%
31 | Cc1cccc(-c2ccn(-c3cc(N4CCOCC4)c4sc(C(=O)N5CCN(S(C)(=O)=O)CC5)c(C)c4n3)n2)c1 [Ex. 291] | 52 to 100%
32 | Cc1cccc(-c2ccn(-c3cc(N4CCOCC4)c4sc(C(N)=O)cc4n3)n2)c1 [Ex. 293] | 52 to 100%
33 | CC(=O)N1CCN(Cc2cc3nc(-n4ccc(-c5cccc(C)c5)n4)cc(N4CCOCC4)c3s2)CC1 [Ex. 295] | 52 to 100%
34 | CC(=O)NC1CCN(Cc2cc3nc(-n4ccc(-c5cccc(C)c5)n4)cc(N4CCOCC4)c3s2)CC1 [Ex. 296] | 52 to 100%
35 | Cc1cccc(-c2ccn(-c3cc(N4CCOCC4)c4sc(CN5CCC(C(N)=O)CC5)cc4n3)n2)c1 [Ex. 297] | 52 to 100%
36 | Cc1cccc(-c2ccn(-c3cc(N4CCOCC4)c4nc(C(=O)NC5COC5)[nH]c4n3)n2)c1 [Ex. 298] | 52 to 100%
37 | Cc1cccc(-c2ccn(-c3cc(N4CCOCC4)c4sc(C(=O)Nc5ccccn5)cc4n3)n2)c1 [Ex. 299] | 52 to 100%
38 | CC(=O)N1CCN(Cc2nc3c(N4CCOCC4)cc(-n4ccc(-c5cccc(C)c5)n4)nc3[nH]2)CC1 [Ex. 301] | 52 to 100%
39 | CC(=O)NC1CCN(Cc2nc3c(N4CCOCC4)cc(-n4ccc(-c5cccc(C)c5)n4)nc3[nH]2)CC1 [Ex. 302] | 52 to 100%
40 | Cc1cccc(-c2ccn(-c3cc(N4CCOCC4)c4nc(CN5CCC(C(N)=O)CC5)[nH]c4n3)n2)c1 [Ex. 303] | 52 to 100%
41 | Cc1cccc(-c2ccn(-c3cc(N4CCOCC4)c4nc(C(=O)NC5CC5)[nH]c4n3)n2)c1 [Ex. 305] | 52 to 100%
42 | Cc1cccc(-c2ccn(-c3cc(N4CCOCC4)c4nc(C(=O)NC5COC5)n(C)c4n3)n2)c1 [Ex. 308] | 52 to 100%
43 | Cc1cccc(-c2ccn(-c3cc(N4CCOCC4)c4nc(C(=O)NC5CC5)n(C)c4n3)n2)c1 [Ex. 309] | 52 to 100%
44 | Cc1cccc(-c2ccn(-c3nc(N4CCOCC4)c4sc(CO)cc4n3)n2)c1 [Ex. 311] | 52 to 100%
45 | Cc1cccc(-c2ccn(-c3cc(N4CCOCC4)c4sc(CO)cc4n3)n2)c1 [Ex. 313] | 52 to 100%
46 | Cc1cccc(-c2ccn(-c3cc(N4CCOCC4)c4nc(COCc5ccccc5)[nH]c4n3)n2)c1 [Ex. 316] | 52 to 100%
47 | Cc1cccc(-c2ccn(-c3cc(N4CCOCC4)c4nc(CO)[nH]c4n3)n2)c1 [Ex. 317] | 52 to 100%

system: not listed separately; test: in vitro; settings: monkey, vero cells

Row | SMILES | CC50 at 24 h
48 | Cc1cccc(-c2ccn(-c3nc(N4CCOCC4)c4sc(CN5CCN(S(C)(=O)=O)CC5)cc4n3)n2)c1 [Ex. 2, 4-(6-((4-(methylsulfonyl)piperazin-1-yl)methyl)-2-(3-(m-tolyl)-1H-pyrazol-1-yl)thieno[3,2-d]pyrimidin-4-yl)morpholine] | > 3 µM

system: IL-12 and IL-23 synthesis; test: not given; settings: background; cited from earlier work

Row | SMILES | inhibitor of IL-12 and IL-23 synthesis
49 | Cc1cccc(/C=N/Nc2cc(N3CCOCC3)nc(OCCc3ccccn3)n2)c1 [Apilimod] | inhibitor of IL-12 and IL-23 synthesis
